Source: patent publication US20100222421A1, “Usage of Baicalein in the Preparation of a Pharmaceutical Composition for the Treatment of Traumatic Brain Injury” (National Defense Medical Center, priority 2009, published 2010)

Columns and labels:
IL-6 protein = assay: ELISA, IL-6 protein after CCI injury; assay type: in vivo, rat; conditions: single-dose 30 mg kg^-1 i.p.; ipsilateral cortex, 1 day post-injury; P<0.01
Protocol: A previously described CCI injury procedure was utilized (Chen et al., 2003). Male Sprague-Dawley rats, which have body weight of 250-300 g, were anaesthetized with sodium pentobarbital (i.p.; 50 mgkg^−1; Rhone Merieux, Harlow, UK) and placed in a stereotaxic frame. A 5-mm craniotomy was performed over the left parietal cortex, centered on the coronal suture and 3 mm lateral to the sagittal suture. Considerable care was taken to avoid injury to the underlying dura. Injury was made using a pneumatic piston with a rounded metal tip (2.5 mm diameter) that was angled 22.5° C. to the vertical so that the tip was perpendicular with the brain surface at the centre of the craniotomy. A velocity of 4 ms^−1 and a deformation depth 2 mm below the dura were used. […] Body temperature was monitored throughout the surgery by a rectal probe; temperature was maintained at 37.0±0.5° C. using a heated pad. […]
Single-dose baicalein (30 mg kg^−1) or a corresponding volume of vehicle was administered i.p. immediately following injury. […] Testing after injury was as follows: (1) real-time quantitative RT-PCR analysis for TNF-α, IL-1β and IL-6 mRNA expression at 6 h post-injury (n=7 for each group); (2) FluoroJade B (FJB) staining, TNF-α, IL-1β and IL-6 immunohistochemistry, as well as ELISA at 24 h post-injury to assess degenerative neurons and to determine cytokine expression (n=7 for each group). […]

IL-1β-positive cells = assay: Immunohistochemistry, IL-1β-positive cells after CCI injury; assay type: in vivo, rat; conditions: single-dose 30 mg kg^-1 i.p.; cortical tissue adjacent to contusion core, 1 day post-injury
Protocol: A previously described CCI injury procedure was utilized (Chen et al., 2003). Male Sprague-Dawley rats, which have body weight of 250-300 g, were anaesthetized with sodium pentobarbital (i.p.; 50 mgkg^−1; Rhone Merieux, Harlow, UK) and placed in a stereotaxic frame. A 5-mm craniotomy was performed over the left parietal cortex, centered on the coronal suture and 3 mm lateral to the sagittal suture. Considerable care was taken to avoid injury to the underlying dura. Injury was made using a pneumatic piston with a rounded metal tip (2.5 mm diameter) that was angled 22.5° C. to the vertical so that the tip was perpendicular with the brain surface at the centre of the craniotomy. A velocity of 4 ms^−1 and a deformation depth 2 mm below the dura were used. The bone flap was immediately replaced and sealed, and the scalp was closed with sutures. Body temperature was monitored throughout the surgery by a rectal probe; temperature was maintained at 37.0±0.5° C. using a heated pad. […] Testing after injury was as follows: (1) real-time quantitative RT-PCR analysis for TNF-α, IL-1β and IL-6 mRNA expression at 6 h post-injury (n=7 for each group); (2) FluoroJade B (FJB) staining, TNF-α, IL-1β and IL-6 immunohistochemistry, as well as ELISA at 24 h post-injury to assess degenerative neurons and to determine cytokine expression (n=7 for each group). […]

O=c1cc(-c2ccccc2)oc2cc(O)c(O)c(O)c12 [baicalein]
IL-6 protein concentration, % of concentration in vehicle-treated rats (IL-6 protein): 67%
reduction in IL-1β-positive cells relative to vehicle (IL-1β-positive cells): 40%
